Among the data in patent US10273218B2, “BCL-3 inhibitors” (University College Cardiff Consultants Limited, priority 2014, dated 2019) are melting point values, retold here.

A word on the melting point: it is the temperature, or range, at which the solid turns liquid.

`COc1cc(NC(=O)c2cccnc2)c(C(=O)NCCN2CCN(C)CC2)cc1OC` [Compound 64, N-(4,5-dimethoxy-2-((2-(4-methylpiperazin-1-yl)ethyl)carbamoyl)phenyl)nicotinamide] displayed a melting point of 126 °C.

As to `CN1CCN(CCNC(=O)c2ccccc2NC(=O)c2cccc(Cl)c2)CC1` [Compound 51, 2-(3-chlorobenzamido)-N-(2-(4-methylpiperazin-1-yl)ethyl) benzamide], the melting point is 104 °C.

`O=C(NCCCc1ccccc1)c1ccccc1NC(=O)c1cccc2ccccc12` [Compound 97, N-(2-((3-phenylpropyl)carbamoyl)phenyl)-1-naphthamide]: the melting point is 98 to 100 °C.

Consider `CN1CCN(CCNC(=O)c2ccccc2NC(=O)c2ccc(OC(F)(F)F)cc2F)CC1` [Compound 115, 2-fluoro-N-(2-((2-(4-methylpiperazin-1-yl)ethyl)carbamoyl)phenyl)-4-(trifluoromethoxy)benzamide], for which the melting point lay within 69 to 71 °C.

Molecule `CN1CCN(CCNC(=O)c2ccccc2NC(=O)c2cccc(C(F)(F)F)c2)CC1` [Compound 114, N-(2-(4-methylpiperazin-1-yl)ethyl)-2-(3-(trifluoromethyl)benzamido) benzamide] displayed a melting point of 101 to 103 °C.

In turn, `COc1cccc(C(=O)NCCc2ccccc2)c1NC(=O)c1ccccc1F` [Compound 84, 2-(2-fluorobenzamido)-3-methoxy-N-phenethylbenzamide] gave a melting point of 130 to 132 °C.

`O=C(Nc1cccc(F)c1C(=O)NCCc1ccccc1)c1ccccc1F` [Compound 81, 2-fluoro-6-(2-fluorobenzamido)-N-phenethylbenzamide] displayed a melting point of 96 to 98 °C.

`COc1cccc(C(=O)Nc2c(OC)cccc2C(=O)NCCc2ccccc2)c1` [Compound 91, 3-methoxy-2-(3-methoxybenzamido)-N-phenethylbenzamide] came in with a melting point of 100 to 102 °C.

`O=C(Nc1cc(F)ccc1C(=O)NCCN1CCOCC1)c1ccccc1F` [Compound 14, 4-fluoro-2-(2-fluorobenzamido)-N-(2-morpholinoethyl) benzamide] displayed a melting point of 104 to 106 °C.

In turn, `O=C(Nc1ccccc1C(=O)NCCN1CCNCC1)c1ccc(F)cc1F` [Compound 45, 2,4-difluoro-N-(2-((2-(piperazin-1-yl)ethyl)carbamoyl)phenyl) benzamide] registered a melting point of 84 °C.

`O=C(Nc1ccccc1C(=O)NCCCN1CCOCC1)c1ccc2ccccc2c1` [Compound 37, N-(2-((3-morpholinopropyl)carbamoyl)phenyl)-2-naphthamide] yielded a melting point of 103 to 105 °C.

Molecule `COc1cc(NC(=O)c2cccnc2)c(C(=O)NCCN2CCN(C)CC2)c(OC)c1OC` [Compound 65, N-(3,4,5-trimethoxy-2-((2-(4-methylpiperazin-1-yl)ethyl)carbamoyl)phenyl)nicotinamide] came in with a melting point of 143 °C.

In the case of `O=C(Nc1ccccc1C(=O)NCCN1CCOCC1)c1ccc([N+](=O)[O-])cc1` [Compound 148, N-(2-morpholinoethyl)-2-(4-nitrobenzamido)benzamide], the melting point is 147 to 149 °C.

Take `COc1ccc(C(=O)Nc2cc(OC)c(OC)c(OC)c2C(=O)NCCN2CCOCC2)cc1` [Compound 27, 2,3,4-trimethoxy-6-(4-methoxybenzamido)-N-(2-morpholinoethyl)benzamide]: the melting point was 143 °C.

The molecule `CN1CCN(CCNC(=O)c2ccccc2NC(=O)c2cccnc2)CC1` [Compound 63, N-(2-((2-(4-methylpiperazin-1-yl)ethyl)carbamoyl)phenyl) nicotinamide] had a melting point of 99 °C.

In turn, `O=C(Nc1ccccc1C(=O)NCCCN1CCOCC1)c1ccccc1F` [Compound 34, 2-fluoro-N-(2-((3-morpholinopropyl)carbamoyl)phenyl) benzamide] yielded a melting point of 76 to 79 °C.

On to `O=C(Nc1ccccc1C(=O)NCCN1CCNCC1)c1ccc([N+](=O)[O-])cc1` [Compound 38, 2-(4-nitrobenzamido)-N-(2-(piperazin-1-yl)ethyl)benzamide], for which the melting point was 98 °C.

Turning to `COc1cccc(C(=O)NCCN2CCOCC2)c1NC(=O)c1ccc(F)cc1` [Compound 18, 2-(4-fluorobenzamido)-3-methoxy-N-(2-morpholinoethyl) benzamide], the melting point was 148 to 151 °C.

In turn, `COc1cccc(C(=O)Nc2ccccc2C(=O)NCCN2CCN(C)CC2)c1` [Compound 101, 2-(3-methoxybenzamido)-N-(2-(4-methylpiperazin-1-yl)ethyl)benzamide] gave a melting point of 113 to 115 °C.

In turn, `COc1ccc(C(=O)Nc2ccccc2C(=O)NCCN2CCNCC2)cc1` [Compound 42, 2-(4-methoxybenzamido)-N-(2-(piperazin-1-yl)ethyl)benzamide] had a melting point of 91 °C.

Regarding `O=C(NCCN1CCOCC1)c1ccccc1NC(=O)c1ccccc1C(F)(F)F` [Compound 9, N-(2-morpholinoethyl)-2-(2-(trifluoromethyl)benzamido) benzamide], the melting point lay within 90 to 92 °C.

With `CN1CCN(CCNC(=O)c2ccccc2NC(=O)c2ccccc2)CC1` [Compound 47, 2-benzamido-N-(2-(4-methylpiperazin-1-yl)ethyl)benzamide], the melting point worked out at 80 °C.

Consider `COc1ccc(C(=O)Nc2ccncc2C(=O)NCCN2CCN(C)CC2)cc1` [Compound 116, 4-(4-methoxybenzamido)-N-(2-(4-methylpiperazin-1-yl)ethyl)nicotinamide], for which the melting point is 83 to 85 °C.

Regarding `COc1ccc(C(=O)Nc2cccc(F)c2C(=O)NCCN2CCN(C)CC2)cc1` [Compound 109, 2-fluoro-6-(4-methoxybenzamido)-N-(2-(4-methylpiperazin-1-yl)ethyl)benzamide], the melting point lay within 81 to 83 °C.

Consider `CN1CCN(CCNC(=O)c2ccccc2NC(=O)c2ccc(F)cc2)CC1` [Compound 107, 2-(4-fluorobenzamido)-N-(2-(4-methylpiperazin-1-yl)ethyl)benzamide], for which the melting point lay within 89 to 91 °C.

On to `O=C(Nc1cccc(F)c1C(=O)NCCN1CCOCC1)c1ccccc1F` [Compound 13, 2-fluoro-6-(2-fluorobenzamido)-N-(2-morpholinoethyl) benzamide], for which the melting point was in the range of 88 to 90 °C.

Molecule `COc1cccc(C(=O)NCCN2CCOCC2)c1NC(=O)c1cccc(F)c1` [Compound 17, 2-(3-fluorobenzamido)-3-methoxy-N-(2-morpholinoethyl) benzamide] yielded a melting point of 128 to 131 °C.

With `COc1ccc(C(=O)Nc2c(OC)cccc2C(=O)NCCN2CCOCC2)c(OC)c1` [Compound 29, 2-(2,4-dimethoxybenzamido)-3-methoxy-N-(2-morpholinoethyl) benzamide], the melting point was 103 to 106 °C.

In turn, `O=C(Nc1ccccc1C(=O)NCCCc1ccccc1)c1ccccc1F` [Compound 95, 2-fluoro-N-(2-((3-phenylpropyl)carbamoyl)phenyl)benzamide] came in with a melting point of 61 to 63 °C.

Molecule `COc1cc(NC(=O)c2ccccc2F)c(C(=O)NCCN2CCN(C)CC2)cc1OC` [Compound 59, 2-(2-fluorobenzamido)-4,5-dimethoxy-N-(2-(4-methylpiperazin-1-yl)ethyl)benzamide] showed a melting point of 60 °C.

In turn, `CN1CCN(CCNC(=O)c2ccccc2NC(=O)c2ccc([N+](=O)[O-])cc2)CC1` [Compound 48, N-(2-(4-methylpiperazin-1-yl)ethyl)-2-(4-nitrobenzamido) benzamide] registered a melting point of 122 °C.

With `COc1ccc(C(=O)Nc2cc(OC)c(OC)c(OC)c2C(=O)NCCN2CCN(C)CC2)cc1` [Compound 62, 2,3,4-trimethoxy-6-(4-methoxybenzamido)-N-(2-(4-methylpiperazin-1-yl)ethyl)benzamide], the melting point was 115 °C.

In turn, `COc1cccc(C(=O)NCCc2ccccc2)c1NC(=O)c1ccc(F)cc1` [Compound 86, 2-(4-fluorobenzamido)-3-methoxy-N-phenethylbenzamide] registered a melting point of 140 to 142 °C.

In turn, `COc1cccc(C(=O)NCCc2ccccc2)c1NC(=O)c1ccc2ccccc2c1` [Compound 119, N-(2-methoxy-6-(phenethylcarbamoyl)phenyl)-2-naphthamide] had a melting point of 188 to 190 °C.

For `COc1cccc(C(=O)NCCCN2CCOCC2)c1NC(=O)c1ccc2ccccc2c1` [Compound 121, N-(2-methoxy-6-(3-morpholinopropylcarbamoyl)phenyl)-2-naphthamide], the melting point was in the range of 140 to 142 °C.

`O=C(Nc1ccccc1C(=O)NCCCc1ccccc1)c1ccc2ccccc2c1` [Compound 98, N-(2-((3-phenylpropyl)carbamoyl)phenyl)-2-naphthamide]: the melting point lay in the range of 99 to 101 °C.

Consider `O=C(Nc1ccccc1C(=O)NCCN1CCNCC1)c1cc(F)cc(F)c1` [Compound 43, 3,5-difluoro-N-(2-((2-(piperazin-1-yl)ethyl)carbamoyl)phenyl) benzamide], for which the melting point was determined as 68 °C.

Take `COc1cc(C(=O)NCCCN2CCOCC2)c(NC(=O)c2cccnc2)c(OC)c1OC` [Compound 132, N-(2,3,4-trimethoxy-6-((3-morpholinopropyl)carbamoyl)phenyl) nicotinamide]: the melting point was in the range of 120 to 122 °C.

Molecule `COc1ccc(C(=O)Nc2ccncc2C(=O)NCCN2CCOCC2)cc1` [Compound 113, 4-(4-methoxybenzamido)-N-(2-morpholinoethyl)nicotinamide] showed a melting point of 105 to 107 °C.

`COc1cccc(C(=O)Nc2cccc(F)c2C(=O)NCCN2CCN(C)CC2)c1` [Compound 110, 2-fluoro-6-(3-methoxybenzamido)-N-(2-(4-methylpiperazin-1-yl)ethyl)benzamide] displayed a melting point of 108 to 110 °C.

Consider `COc1cc(NC(=O)c2ccccc2F)c(C(=O)NCCN2CCOCC2)c(OC)c1OC` [Compound 20, 6-(2-fluorobenzamido)-2,3,4-trimethoxy-N-(2-morpholinoethyl) benzamide], for which the melting point is 141 °C.

For `COc1ccc(C(=O)Nc2c(OC)cccc2C(=O)NCCc2ccccc2)c(OC)c1` [Compound 93, 2-(2,4-dimethoxybenzamido)-3-methoxy-N-phenethylbenzamide], the melting point lay within 132 to 134 °C.
